What was measured:
Mmp-9KO mice = assay: Outflow facility in protein treated Mmp-9KO mouse eyes (Example 16); format: in vivo; conditions: intravitreal protein, p>0.05
Protocol: PlatKO and Mmp-9KO mice were also not given steroids prior to protein injections (FIG. 10c). Within each cohort, animals were divided into two groups:
(§1) 1) Animals that received unilateral intravitreal injection with 2 μl of tPA (5 μg/μl, Actilyse; Boehringer Ingelheim, Ingelheim am Rhein, Germany) while the contralateral eye received 2 μl of BSA (5 μg/μl; Gold Biotechnology, St Louis, Mo., USA), and 2) Animals that received unilateral intravitreal injections with 2 μl of non-enzymatically active tPA (NE-tPA/S478A-tPA) (5 μg/μl; Innovative Research, Novi, Mich., USA) while the contralateral eye received 2 μl of BSA. Animals were euthanized two days after intravitreal injection.
(§2) Outflow facility determination: Mouse eyes were enucleated immediately after euthanasia. Outflow facility was determined using a constant pressure method, as previously described. Pressure was raised in steps of 4 cmH2O, from 8 cmH2O (5.88 mmHg) to 32 cmH2O (23.54 mmHg) by increasing the height of a column of fluid of BSS. Steady state was initially achieved after 10 minutes. […] Flow was constantly measured via a microfluidic flow sensor (0.07-1.5 uL/min, MFS1; Elveflow, Paris, France). […] Any eyes that developed visible leaks during outflow facility determination, or that had pressure-flow correlations with R^2<0.9, were excluded from analysis but were used for RNA quantification.

[1] = test system: sheep of the Corriedale breed; assay: Steroid-induced IOP elevation in sheep, intravitreal tPA (Examples 3, 4); format: in vivo
Protocol: Protocol 1. 8 sheep of the Corriedale breed were treated with prednisolone acetate three times a day in both eyes, leading to elevated IOP. After one week, the animals received intravitreal injections of human recombinant tPA (100, 200, 500 and 1000 μg, two animals each) dissolved in balanced salt solution (BSS) in one eye. IOP was monitored for 19 more days while the animals continued to receive treatment with prednisolone. Periodic slit lamp examination was also performed.
Protocol 2. In a second set of experiments, arginine was added to the BSS vehicle administered to the left eye to control for the relatively high concentration of the amino acid in the commercially available tPA lyophilisate. In these experiments all right eyes received 0.1 mg tPA, which concomitantly delivered 4.23 mg of arginine into the vitreous, and the left eye received this same amount of arginine, absent the tPA. On Day 1, prednisolone treatments were also begun simultaneously on both eyes.
Methods. In this experiment, the inventor sought to detect the effects of tPA treatment on prevention of steroid-induced IOP elevation. In 4 sheep tPA was injected in one eye (100 μg) and they were started on prednisolone acetate three times a day in both eyes. Animals were monitored for 11 days on continuous treatment.

[2] = test system: Mmp-2, Mmp-9, Mmp-13, Plat; assay: Mmp and Plat expression in protein treated C57BL/6J eyes not exposed to steroids (Example 15); format: in vivo, mouse; conditions: C57BL/6J not exposed to steroids
Tg-MYOCY437H mice = assay: Outflow facility in Tg-MYOCY437H mouse eyes (Example 19); format: in vivo
Protocol: To investigate whether corticosteroids affect outflow facility in Tg-MYOCY437H mice, animals received bilateral injections (20 μl) with either triamcinolone acetonide (TA) (40 mg/ml, Kenalog-40; Bristol-Myers Squibb, NY, USA) suspension or phosphate-buffered saline (PBS) (Gibco, ThermoFisher Scientific, Waltham, Mass., USA) subconjunctivally using a 100 μL Hamilton syringe with a 26-gauge needle (Precision Glide, Becton Dickinson & CO, Franklin Lakes, N.J., USA). They were euthanized one week later for outflow facility measurement.
To investigate whether tPA can affect outflow facility in Tg-MYOCY437H mice, and determine whether tPA enzymatic action is necessary for such an effect, intravitreal injections were performed using a 10 μL Hamilton syringe with 36-gauge stainless steel needles (WPI Inc, Sarasota, Fla., USA). […] Animals were sacrificed either two or five days after intravitreal injections for outflow facility measurement. […]
Mouse eyes were enucleated immediately after euthanasia. Outflow facility was determined using a microfluidic flow sensor (0.07-1.5 uL/min, MFS1; Elveflow, Paris, France) and constant pressure method, as previously described (Hu, Barron et al. 2019). […] Any eyes that developed visible leaks or that had pressure-flow correlations with […] were excluded from analysis but were used for RNA quantification.

C57BL/6J mice [3] = assay: Outflow facility in protein treated C57BL/6J eyes not exposed to steroids (Example 15); format: in vivo, mouse; conditions: C57BL/6J not exposed to steroids, intravitreal protein
Protocol: (§3) 1) Animals receiving bilateral steroid (TA) injection subconjunctivally five days prior to protein injection (FIG. 10b) and 2) Animals not receiving subconjunctival steroids (FIG. 10c).
as §1, §2

C57BL/6J mice [4] = assay: Outflow facility in TA and protein treated C57BL/6J mouse eyes (Example 13); format: in vivo; conditions: TA five days before intravitreal protein (2 μl, 5 μg/μl); two days after injection
Protocol: C57BL/6J mice were divided into two groups:
as §3, §1
as §2, with “BSS.” for “BSS. Steady state was initially achieved after 10 minutes.”

[5] = test system: sheep of the Coriedale breed; assay: Steroid-induced IOP elevation in sheep, tPA injected into the anterior chamber (Example 9); format: in vivo
Protocol: Methods. Lyophilized tPA, obtained as Acetilyse® from Boehringer Ingelheim S. A. (Buenos Aires) containing arginine, was used. Five sheep of the Coriedale breed were selected. Initially all eyes received instillation of 1% prednisolone 3 times/day for 10 days to elevate their IOP from 10 mm Hg to about 23 mm Hg. Then, 0.0001 μg was injected into one of the eyes and its effect was followed for up to 55:00 hrs while the instillation of prednisolone continued in both eyes. The same protocol was implemented for the 0.001 and 0.01 μg amounts (after extended washout) in the contra lateral eyes. Arginine, which is associated with 0.01 ug tPA, was injected alone and had no effect.

In the case of tissue plasminogen activator [tPA], the “effect on outflow facility” value (Mmp-9KO mice) is reported as “did not increase”, the “prevention of steroid-induced IOP elevation” value ([1]; 100 μg in one eye, concurrent with prednisolone, 11 days) is reported as “prevented IOP elevation” and the ocular observations ([1]; intravitreal tPA, prednisolone-treated sheep, some eyes) is reported as “Transient injection and corneal clouding”. For the same substance, the “IOP after tPA” value ([1]; within 24 h, all intravitreal doses tested (100-1000 μg), prednisolone continued) was 14.1(±1.1) mmHg, the “endogenous Plat expression” value [2] was “did not cause significant changes” and the “gene expression changes in Mmp-2, Mmp-9 and Mmp-13” value ([2]; vs BSA) was “not significantly different”. The “improvement of outflow facility” value (Tg-MYOCY437H mice) was ~31%, the “outflow facility, mean±standard deviation” value (C57BL/6J mice [3]) was 102.7±19.5×10^−5 μl/min/mmHg and the “outflow facility, mean±standard deviation” value (C57BL/6J mice [4]) was 105.3±35.8×10^−5 μl/min/mmHg. For the same substance, the “effect on IOP” value ([5]; 0.0001 μg into the AC, IOP 23.0 mm Hg at 6:00 and 30:00 hrs) was “had no effect”, the IOP ([5]; 0.001 μg into the AC, 6:00 hr, from 23.1) was 18.6 mmHg and the IOP ([5]; 0.001 μg into the AC, 30:00 hr) was 22.3 mm Hg. It also gave an IOP ([5]; 0.01 μg into the AC, 6:00 hrs, baseline 23.4) of 14.2 mm Hg, an IOP ([5]; 0.01 μg into the AC, 30:00 hrs) of 19.0 mm Hg and an IOP ([5]; 0.01 μg into the AC, 48:00 hrs) of 20.9 mm Hg. The IOP ([5]; 0.01 μg into the AC, 55:00 hrs) was 22.3 mm Hg and the “effect on IOP” value ([5]; single dose of 1 μg of tPA injected intracamerally) was “reduction in IOP”.

From US20210220450A1, “TREATMENT OF AN IOP CONDITION” (The Research Foundation for The State University of New York, priority 2013, published 2021)
